Measurements published in PubChem BioAssay AID1963838 (Molecular Pharmacology Branch, DTP, NCI, 2024).

Test system: 855422-203-R-J1-PDC complex spheroid viability
Experiment: Anticancer human tumor 855422-203-R-J1-PDC patient-derived bladder carcinoma cell line growth inhibition [POLQ]
Details: for IC50: curve of first compound; for viability, T/C: stronger effect = lower value
In short: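 PDC + HUVEC + MSC complex spheroids; POLQ inhibitors ± partner drugs; top conc. at/near clinical Cmax, else 10 microM (SN-38 1 microM), half-log dilutions; 37 degrees C, 5% CO2.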

[1] = second compound 0.0316 µM, first compound 0.0316 µM
[2] = second compound 0.0316 µM, first compound 0.1 µM
[3] = second compound 0.0316 µM, first compound 0.316 µM
[4] = second compound 0.0316 µM, first compound 1 µM
[5] = second compound 0.0316 µM, first compound 3.16 µM
[6] = second compound 0.0316 µM, first compound 10 µM
[7] = second compound 0.1 µM, first compound 0.0316 µM
[8] = second compound 0.1 µM, first compound 0.1 µM
[9] = second compound 0.1 µM, first compound 0.316 µM
[10] = second compound 0.1 µM, first compound 1 µM
[11] = second compound 0.1 µM, first compound 3.16 µM
[12] = second compound 0.1 µM, first compound 10 µM
[13] = second compound 0.316 µM, first compound 0.0316 µM
[14] = second compound 0.316 µM, first compound 0.1 µM
[15] = second compound 0.316 µM, first compound 0.316 µM
[16] = second compound 0.316 µM, first compound 1 µM
[17] = second compound 0.316 µM, first compound 3.16 µM
[18] = second compound 0.316 µM, first compound 10 µM
[19] = second compound 1 µM, first compound 0.0316 µM
[20] = second compound 1 µM, first compound 0.1 µM
[21] = second compound 1 µM, first compound 0.316 µM
[22] = second compound 1 µM, first compound 1 µM
[23] = second compound 1 µM, first compound 3.16 µM
[24] = second compound 1 µM, first compound 10 µM
[25] = second compound 3.16 µM, first compound 0.0316 µM
[26] = second compound 3.16 µM, first compound 0.1 µM
[27] = second compound 3.16 µM, first compound 0.316 µM
[28] = second compound 3.16 µM, first compound 1 µM
[29] = second compound 3.16 µM, first compound 3.16 µM
[30] = second compound 3.16 µM, first compound 10 µM
[31] = second compound 10 µM, first compound 0.0316 µM
[32] = second compound 10 µM, first compound 0.1 µM
[33] = second compound 10 µM, first compound 0.316 µM
[34] = second compound 10 µM, first compound 1 µM
[35] = second compound 10 µM, first compound 3.16 µM
[36] = second compound 10 µM, first compound 10 µM
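Further: spheroids exposed to compounds for seven days before readout.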

## C#Cc1c(F)ccc2cc(O)cc(-c3ncc4c(N5CC6CCC(C5)N6)nc(OCC56CCCN5CC(F)C6)nc4c3F)c12 (stereo unspecified) + Nc1ccc(C#CCN(C(=O)Cc2ncc(C(F)(F)F)cc2C(F)(F)F)c2ccc(F)cc2)nn1
Second compound 0.0316 µM
  IC50: > 10 µM
Second compound 0.1 µM
  IC50: > 10 µM
Second compound 0.316 µM
  IC50: > 10 µM
Second compound 1 µM
  IC50: > 10 µM
Second compound 3.16 µM
  IC50: > 10 µM
Second compound 10 µM
  IC50: > 10 µM
[1]
  viability, T/C: 110%
[2]
  viability, T/C: 110%
[3]
  viability, T/C: 102%
[4]
  viability, T/C: 98%
[5]
  viability, T/C: 110%
[6]
  viability, T/C: 109%
[7]
  viability, T/C: 96.4%
[8]
  viability, T/C: 106%
[9]
  viability, T/C: 85.6%
[10]
  viability, T/C: 101%
[11]
  viability, T/C: 138%
[12]
  viability, T/C: 102%
[13]
  viability, T/C: 100%
[14]
  viability, T/C: 120%
[15]
  viability, T/C: 124%
[16]
  viability, T/C: 111%
[17]
  viability, T/C: 120%
[18]
  viability, T/C: 115%
[19]
  viability, T/C: 107%
[20]
  viability, T/C: 98%
[21]
  viability, T/C: 107%
[22]
  viability, T/C: 109%
[23]
  viability, T/C: 113%
[24]
  viability, T/C: 99%
[25]
  viability, T/C: 92.5%
[26]
  viability, T/C: 99%
[27]
  viability, T/C: 97.9%
[28]
  viability, T/C: 97.6%
[29]
  viability, T/C: 108%
[30]
  viability, T/C: 106%
[31]
  viability, T/C: 103%
[32]
  viability, T/C: 94.3%
[33]
  viability, T/C: 90.7%
[34]
  viability, T/C: 100%
[35]
  viability, T/C: 103%
[36]
  viability, T/C: 91.3%

## CC(C)n1c(=O)n(C)c2cnc3cc(F)c(-c4ccc(OCCCN5CCCCC5)nc4)cc3c21 + Nc1ccc(C#CCN(C(=O)Cc2ncc(C(F)(F)F)cc2C(F)(F)F)c2ccc(F)cc2)nn1
Second compound 0.0316 µM
  IC50: > 10 µM
Second compound 0.1 µM
  IC50: > 10 µM
Second compound 0.316 µM
  IC50: > 10 µM
Second compound 1 µM
  IC50: > 10 µM
Second compound 3.16 µM
  IC50: > 10 µM
Second compound 10 µM
  IC50: > 10 µM
[1]
  viability, T/C: 100%
[2]
  viability, T/C: 123%
[3]
  viability, T/C: 110%
[4]
  viability, T/C: 94.2%
[5]
  viability, T/C: 99.9%
[6]
  viability, T/C: 107%
[7]
  viability, T/C: 99.4%
[8]
  viability, T/C: 140%
[9]
  viability, T/C: 97.2%
[10]
  viability, T/C: 94.4%
[11]
  viability, T/C: 100%
[12]
  viability, T/C: 93.5%
[13]
  viability, T/C: 96.5%
[14]
  viability, T/C: 128%
[15]
  viability, T/C: 96.3%
[16]
  viability, T/C: 99.3%
[17]
  viability, T/C: 97%
[18]
  viability, T/C: 96.1%
[19]
  viability, T/C: 91.8%
[20]
  viability, T/C: 120%
[21]
  viability, T/C: 95.1%
[22]
  viability, T/C: 99.2%
[23]
  viability, T/C: 101%
[24]
  viability, T/C: 91.3%
[25]
  viability, T/C: 97.9%
[26]
  viability, T/C: 148%
[27]
  viability, T/C: 98%
[28]
  viability, T/C: 106%
[29]
  viability, T/C: 103%
[30]
  viability, T/C: 92.1%
[31]
  viability, T/C: 104%
[32]
  viability, T/C: 101%
[33]
  viability, T/C: 91.3%
[34]
  viability, T/C: 100%
[35]
  viability, T/C: 101%
[36]
  viability, T/C: 82.8%

## CC1COCCN1c1cc(C2(O)CC3CCC(C2)O3)c2cnn(-c3ccn[nH]3)c2n1 (stereo unspecified) + Nc1ccc(C#CCN(C(=O)Cc2ncc(C(F)(F)F)cc2C(F)(F)F)c2ccc(F)cc2)nn1
Second compound 0.0316 µM
  IC50: 0.217 µM
Second compound 0.1 µM
  IC50: 0.194 µM
Second compound 0.316 µM
  IC50: 0.174 µM
Second compound 1 µM
  IC50: 0.17 µM
Second compound 3.16 µM
  IC50: 0.147 µM
Second compound 10 µM
  IC50: 0.0989 µM
[1]
  viability, T/C: 111%
[2]
  viability, T/C: 105%
[3]
  viability, T/C: 23.2%
[4]
  viability, T/C: 12.7%
[5]
  viability, T/C: 11.1%
[6]
  viability, T/C: 7.13%
[7]
  viability, T/C: 139%
[8]
  viability, T/C: 84%
[9]
  viability, T/C: 24.7%
[10]
  viability, T/C: 12%
[11]
  viability, T/C: 11.2%
[12]
  viability, T/C: 5.82%
[13]
  viability, T/C: 117%
[14]
  viability, T/C: 78.9%
[15]
  viability, T/C: 18.5%
[16]
  viability, T/C: 13.2%
[17]
  viability, T/C: 12%
[18]
  viability, T/C: 5.73%
[19]
  viability, T/C: 104%
[20]
  viability, T/C: 72.7%
[21]
  viability, T/C: 23.1%
[22]
  viability, T/C: 10.9%
[23]
  viability, T/C: 10.2%
[24]
  viability, T/C: 5.09%
[25]
  viability, T/C: 107%
[26]
  viability, T/C: 69%
[27]
  viability, T/C: 12.6%
[28]
  viability, T/C: 14.6%
[29]
  viability, T/C: 9.39%
[30]
  viability, T/C: 5.42%
[31]
  viability, T/C: 151%
[32]
  viability, T/C: 48.6%
[33]
  viability, T/C: 17%
[34]
  viability, T/C: 11.1%
[35]
  viability, T/C: 9.46%
[36]
  viability, T/C: 4.88%
